Literature values in patent US5703067A, “Inhibitors of farnesyl-protein transferase” (Merck & Co., Inc., priority 1995, dated 1997).

Tested on: farnesyl-protein transferase
Details: via HMG-CoA reductase inhibition, literature

| Structure (SMILES) | Indirect inhibition of farnesyl-protein transferase in vivo |
| --- | --- |
| CC[C@H](C)C(=O)O[C@H]1CCC=C2C=C[C@H](C)[C@H](CC[C@@H]3C[C@@H](O)CC(=O)O3)[C@H]21 [compactin] | Indirect inhibition of farnesyl-protein transferase in vivo has been demonstrated |
| CC[C@H](C)C(=O)O[C@H]1C[C@@H](C)C=C2C=C[C@H](C)[C@H](CC[C@@H]3C[C@@H](O)CC(=O)O3)[C@H]21 [lovastatin] | Indirect inhibition of farnesyl-protein transferase in vivo has been demonstrated |
